Tests used:
Type in all cases: biochemical
[1] = target: T1, Full length PKA (Homo sapiens, UniProt P17612); test: PKA in vitro enzymatic assay (HTRF); settings: 0.035 nM enzyme solution, substrate solution with 5 mM ATP, 25° C. 1 hr
T1 construct: Full length PKA (cat #P2912); purchased Invitrogen P2912
Description: Full length PKA (cat #P2912), peptide substrate, fluorescein CREBtide peptide (cat #PV3508), Tb-Crebtide p-S133 Ab (cat #PV3566), and Lanthascreen TR-FRET Dilution Buffer stored (part # PV3574) were purchased from Invitrogen. In general, assay buffer conditions were chosen based on obtaining optimal and linear enzymatic activities. The assay buffer contains 50 mM HEPES, 10 mM MgCl2, 5 mM DTT, 0.005% Tween20 at pH 7.8. Compound stock (0.001 mM) was prepared in DMSO. The compound plate was prepared by 3-fold and 11-point serial dilutions. 0.5 μL of the compound in DMSO was transferred from the compound plate to the assay plate. 0.035 nM enzyme solution was prepared in the assay buffer. Note that the enzyme concentration given is based on the given stock concentration reported by the vendor. 0.1 μM substrate solution was prepared in the assay buffer with addition of 5 mM ATP. 10 μL of the enzyme solution was added to the assay plate and then 10 μL of substrate solution was added to the assay plate. The plate was protected from light and the reaction was incubated at 25° C. for 1 hr. The reaction was stopped by adding 10 μL of a solution containing 30 mM EDTA, and 1.5 nM Tb-Crebtide p-S133 Ab in 1× detection buffer. The plate was incubated for 15-30 min at room temperature and HTRF (homogenous time resolved fluorescence) was measured on a plate reader. Percentage of inhibition was calculated for each concentration and IC50 value was generated from curve fitting. See Table 8 for data related to compounds of the examples.

[2] = target: T2, Full length Akt2 (Homo sapiens, UniProt P31751); test: In vitro Akt kinase enzymatic assay (HTRF), Akt2; settings: 0.6 nM Akt2, substrate solution with 5 mM ATP, 25° C. 1 hr
T2 construct: Full length Akt1 (cat #P2999), Akt2 (cat #PV3184); purchased PerkinElmer PV3184
Description: (§1) Compounds herein were tested for inhibitory activity of Akt targets according to the following in vitro assay. Full length Akt1 (cat #P2999), Akt2 (cat #PV3184), Akt3 (cat #PV3185), peptide substrate, Ulight-Crosstide (cat #TRF0106-M), Ultra-Europium anti-phospho-Crosstide (cat #TRF-0202-M), and 10×LANCE detection buffer (cat #CR97-100) were purchased from PerkinElmer. In general, assay buffer conditions were chosen based on obtaining optimal enzymatic and linear activities. The assay buffer contains 50 mM HEPES, 10 mM MgCl2, 5 mM DTT, 0.005% Tween20 at pH 7.8. Compound stock (0.001 mM) was prepared in DMSO. The compound plate was prepared by 3-fold and 11-point serial dilutions. 0.5 μL of the compound in DMSO was transferred from the compound plate to the assay plate. Enzyme solution (0.4 nM of Akt1, 0.6 nM of Akt2 or 0.6 nM of Akt3) was prepared in the assay buffer. Note that the enzyme concentration given is based on the given stock concentration reported by the vendor. 0.1 μM substrate solution was prepared in the assay buffer with addition of 5 mM ATP. 10 μL of the enzyme solution was added to the assay plate and then 10 μL of substrate solution was added to the assay plate. The plate was protected from light and the reaction was incubated at 25° C. for 1 hr. The reaction was stopped by adding 10 μL of a solution containing 30 mM EDTA, and 3 nM Ultra Europium anti-phospho Crosstide in 1× detection buffer. The plate was incubated for 15-30 min at room temperature and HTRF (homogenous time resolved fluorescence) was measured on a plate reader. Percentage of inhibition was calculated for each concentration and IC50 value was generated from curve fitting. See Table 8 for data related to compounds of the examples.

[3] = target: T3, Full length Akt3 (Homo sapiens, UniProt Q9Y243); test: In vitro Akt kinase enzymatic assay (HTRF), Akt3; settings: 0.6 nM Akt3, substrate solution with 5 mM ATP, 25° C. 1 hr
T3 construct: Full length Akt1 (cat #P2999), Akt2 (cat #PV3184), Akt3 (cat #PV3185); purchased PerkinElmer PV3185
Description: as §1

[4] = target: T4, Full length Akt1 (Homo sapiens, UniProt P31749); test: In vitro Akt kinase enzymatic assay (HTRF), Akt1; settings: 0.4 nM Akt1, substrate solution with 5 mM ATP, 25° C. 1 hr
T4 construct: Full length Akt1 (cat #P2999); purchased PerkinElmer P2999
Description: as §1

T2 sequence (P31751 whole entry): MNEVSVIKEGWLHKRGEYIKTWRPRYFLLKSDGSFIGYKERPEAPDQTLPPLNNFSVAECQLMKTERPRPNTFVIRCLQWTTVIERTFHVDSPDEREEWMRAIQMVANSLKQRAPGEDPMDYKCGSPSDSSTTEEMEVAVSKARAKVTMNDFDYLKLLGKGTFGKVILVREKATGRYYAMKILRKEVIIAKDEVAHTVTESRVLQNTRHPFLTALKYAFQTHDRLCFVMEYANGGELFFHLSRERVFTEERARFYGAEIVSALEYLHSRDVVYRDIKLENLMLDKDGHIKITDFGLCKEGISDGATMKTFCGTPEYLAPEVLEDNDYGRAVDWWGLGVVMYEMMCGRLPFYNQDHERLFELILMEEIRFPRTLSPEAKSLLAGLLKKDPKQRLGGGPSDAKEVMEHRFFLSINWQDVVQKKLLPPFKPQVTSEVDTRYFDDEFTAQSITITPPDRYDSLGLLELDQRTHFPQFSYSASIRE
T3 sequence (Q9Y243 whole entry): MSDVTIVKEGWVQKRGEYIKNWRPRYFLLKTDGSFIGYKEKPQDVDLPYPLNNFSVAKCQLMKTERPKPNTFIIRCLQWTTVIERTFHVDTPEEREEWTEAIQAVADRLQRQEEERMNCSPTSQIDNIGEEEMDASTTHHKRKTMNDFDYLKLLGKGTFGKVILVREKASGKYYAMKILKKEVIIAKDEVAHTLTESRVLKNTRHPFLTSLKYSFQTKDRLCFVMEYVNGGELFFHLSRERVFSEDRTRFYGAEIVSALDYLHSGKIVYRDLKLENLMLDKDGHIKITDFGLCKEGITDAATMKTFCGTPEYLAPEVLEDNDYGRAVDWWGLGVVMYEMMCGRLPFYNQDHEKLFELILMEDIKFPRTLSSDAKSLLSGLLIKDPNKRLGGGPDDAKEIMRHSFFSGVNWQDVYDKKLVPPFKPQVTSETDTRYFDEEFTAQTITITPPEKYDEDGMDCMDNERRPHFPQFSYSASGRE
T4 sequence (P31749 whole entry): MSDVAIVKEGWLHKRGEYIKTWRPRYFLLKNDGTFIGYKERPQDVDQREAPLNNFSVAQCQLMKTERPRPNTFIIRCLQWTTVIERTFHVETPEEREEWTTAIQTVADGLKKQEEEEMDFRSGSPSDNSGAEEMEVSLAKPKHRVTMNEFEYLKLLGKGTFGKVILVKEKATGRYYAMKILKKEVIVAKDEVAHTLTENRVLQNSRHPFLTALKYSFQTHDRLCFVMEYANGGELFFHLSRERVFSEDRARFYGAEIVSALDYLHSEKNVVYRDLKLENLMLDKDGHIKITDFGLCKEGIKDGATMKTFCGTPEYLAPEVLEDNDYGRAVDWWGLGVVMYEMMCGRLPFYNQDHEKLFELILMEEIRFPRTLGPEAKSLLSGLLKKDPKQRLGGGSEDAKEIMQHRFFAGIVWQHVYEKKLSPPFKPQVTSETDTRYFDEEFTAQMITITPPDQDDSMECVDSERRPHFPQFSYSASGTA

Row | SMILES | IC50 [1] [µM] | IC50 [2] [µM] | IC50 [3] [µM] | IC50 [4] [µM]
1 | Cn1ncc(Cl)c1-c1ccc2c(c1)CN(C(CN)c1ccccc1)C2=O (stereo in doubt) [Example 114, 2-[(1R)-2-amino-1-phenylethyl]-5-(4-chloro-1-methyl-1H-pyrazol-5-yl)isoindolin-1-one] | > 5 | 0.5 to 5 | 0.5 to 5 | < 0.5
2 | Cn1ncc(-c2ccccc2)c1-c1ccc2c(c1)CN([C@H](CN)Cc1cccc(F)c1)C2=O [Example 14, 2-[(1S)-2-amino-1-(3-fluorobenzyl)ethyl]-5-(4-phenyl-1-methyl-1H-pyrazol-5-yl)isoindolin-1-one] | > 5 | 0.5 to 5 | < 0.5 | 0.5 to 5
3 | Cn1ncc(-c2cccs2)c1-c1ccc2c(c1)CN([C@H](CN)Cc1cccc(F)c1)C2=O [Example 15, 2-[(1S)-2-amino-1-(3-fluorobenzyl)ethyl]-5-[1-methyl-4-(2-thienyl)-1H-pyrazol-5-yl]isoindolin-1-one] | > 5 | > 5 | < 0.5 | 0.5 to 5
4 | Cn1ncc(-c2ccsc2)c1-c1ccc2c(c1)CN([C@H](CN)Cc1cccc(F)c1)C2=O [Example 16, 2-[(1S)-2-amino-1-(3-fluorobenzyl)ethyl]-5-[1-methyl-4-(3-thienyl)-1H-pyrazol-5-yl]isoindolin-1-one] | > 5 | 0.5 to 5 | < 0.5 | 0.5 to 5
5 | Cn1nccc1-c1cnn(C)c1-c1ccc2c(c1)CN([C@H](CN)Cc1cccc(F)c1)C2=O [Example 17, 2-[(1S)-2-amino-1-(3-fluorobenzyl)ethyl]-5-(1′,2-dimethyl-1′H,2H-3,4′-bipyrazol-5′-yl)isoindolin-1-one] | > 5 | > 5 | > 5 | > 5
6 | Cn1ncc(-c2ccncc2)c1-c1ccc2c(c1)CN([C@H](CN)Cc1cccc(F)c1)C2=O [Example 18, 2-[(1S)-2-amino-1-(3-fluorobenzyl)ethyl]-5-(1-methyl-4-pyridin-4-yl-1H-pyrazol-5-yl)isoindolin-1-one] | > 5 | > 5 | 0.5 to 5 | > 5
7 | Cn1ncc(-c2nccs2)c1-c1ccc2c(c1)CN([C@H](CN)Cc1cccc(F)c1)C2=O [Example 20, 2-[(1S)-2-amino-1-(3-fluorobenzyl)ethyl]-5-[1-methyl-4-(1,3-thiazol-2-yl)-1H-pyrazol-5-yl]isoindolin-1-one] | > 5 | 0.5 to 5 | 0.5 to 5 | < 0.5
8 | Cn1ncc(-c2ccc3ccccc3c2)c1-c1ccc2c(c1)CN([C@H](CN)Cc1cccc(F)c1)C2=O [Example 21, 2-[(1S)-2-amino-1-(3-fluorobenzyl)ethyl]-5-[1-methyl-4-(2-naphthyl)-1H-pyrazol-5-yl]isoindolin-1-one] | > 5 | > 5 | < 0.5 | 0.5 to 5
9 | Cn1ncc(-c2cccc3ccccc23)c1-c1ccc2c(c1)CN([C@H](CN)Cc1cccc(F)c1)C2=O [Example 22, 2-[(1S)-2-amino-1-(3-fluorobenzyl)ethyl]-5-[1-methyl-4-(1-naphthyl)-1H-pyrazol-5-yl]isoindolin-1-one] | > 5 | > 5 | > 5 | > 5
10 | Cn1ncc(-c2cncnc2)c1-c1ccc2c(c1)CN([C@H](CN)Cc1cccc(F)c1)C2=O [Example 23, 2-[(1S)-2-amino-1-(3-fluorobenzyl)ethyl]-5-(1-methyl-4-pyrimidin-5-yl-1H-pyrazol-5-yl)isoindolin-1-one] | > 5 | > 5 | > 5 | > 5
11 | Cn1ncc(-c2cccnc2F)c1-c1ccc2c(c1)CN([C@H](CN)Cc1cccc(F)c1)C2=O [Example 24, 2-[(1S)-2-amino-1-(3-fluorobenzyl)ethyl]-5-[4-(2-fluoropyridin-3-yl)-1-methyl-1H-pyrazol-5-yl]isoindolin-1-one] | > 5 | > 5 | > 5 | > 5
12 | Cn1ncc(-c2ccc(F)nc2)c1-c1ccc2c(c1)CN([C@H](CN)Cc1cccc(F)c1)C2=O [Example 25, 2-[(1S)-2-amino-1-(3-fluorobenzyl)ethyl]-5-[4-(6-fluoropyridin-3-yl)-1-methyl-1H-pyrazol-5-yl]isoindolin-1-one] | > 5 | > 5 | > 5 | > 5
13 | Cn1ncc(-c2cncc(F)c2)c1-c1ccc2c(c1)CN([C@H](CN)Cc1cccc(F)c1)C2=O [Example 26, 2-[(1S)-2-amino-1-(3-fluorobenzyl)ethyl]-5-[4-(5-fluoropyridin-3-yl)-1-methyl-1H-pyrazol-5-yl]isoindolin-1-one] | > 5 | > 5 | > 5 | > 5
14 | COc1ncccc1-c1cnn(C)c1-c1ccc2c(c1)CN([C@H](CN)Cc1cccc(F)c1)C2=O [Example 27, 2-[(1S)-2-amino-1-(3-fluorobenzyl)ethyl]-5-[4-(2-methoxypyridin-3-yl)-1-methyl-1H-pyrazol-5-yl]isoindolin-1-one] | > 5 | > 5 | > 5 | > 5
15 | COc1ccc(-c2cnn(C)c2-c2ccc3c(c2)CN([C@H](CN)Cc2cccc(F)c2)C3=O)cn1 [Example 28, 2-[(1S)-2-amino-1-(3-fluorobenzyl)ethyl]-5-[4-(6-methoxypyridin-3-yl)-1-methyl-1H-pyrazol-5-yl]isoindolin-1-one] | > 5 | > 5 | > 5 | 0.5 to 5
16 | CNC(=O)c1ccc(-c2cnn(C)c2-c2ccc3c(c2)CN([C@H](CN)Cc2cccc(F)c2)C3=O)cn1 [Example 29, 5-(5-{2-[(1S)-2-amino-1-(3-fluorobenzyl)ethyl]-1-oxo-2,3-dihydro-1H-isoindol-5-yl}-1-methyl-1H-pyrazol-4-yl)-N-methylpyridine-2-carboxamide] | > 5 | > 5 | > 5 | 0.5 to 5
17 | CNC[C@H](Cc1cccc(F)c1)N1Cc2cc(-c3c(Cl)cnn3C)ccc2C1=O [Example 30, 5-(4-chloro-1-methyl-1H-pyrazol-5-yl)-2-[(1S)-1-(3-fluorobenzyl)-2-(methylamino)ethyl]isoindolin-1-one] | > 5 | 0.5 to 5 | 0.5 to 5 | < 0.5
18 | CCNC[C@H](Cc1cccc(F)c1)N1Cc2cc(-c3c(Cl)cnn3C)ccc2C1=O [Example 31, 5-(4-chloro-1-methyl-1H-pyrazol-5-yl)-2-[(1S)-2-(ethylamino)-1-(3-fluorobenzyl)ethyl]isoindolin-1-one] | > 5 | 0.5 to 5 | 0.5 to 5 | < 0.5
19 | CC(C)NC[C@H](Cc1cccc(F)c1)N1Cc2cc(-c3c(Cl)cnn3C)ccc2C1=O [Example 32, 5-(4-chloro-1-methyl-1H-pyrazol-5-yl)-2-[(1S)-1-(3-fluorobenzyl)-2-(isopropylamino)ethyl]isoindolin-1-one] | > 5 | 0.5 to 5 | 0.5 to 5 | 0.5 to 5

— patent US8895571B2, “Isoindolinone and pyrrolopyridinone derivatives as Akt inhibitors” (Incyte Corporation, priority 2011, dated 2014)
